Assay results taken from ChEMBL document CHEMBL4028908, “The Discovery of 3-((4-Chloro-3-methoxyphenyl)amino)-1-((3R,4S)-4-cyanotetrahydro-2H-pyran-3-yl)-1H-pyrazole-4-carboxamide, a Highly Ligand Efficient and Efficacious Janus Kinase 1 Selective Inhibitor with Favorable Pharmacokinetic Properties” (J Med Chem, 2017).
pIC50: −log10 of the molar value. Values after ≈ are worked out from the molar mass of the structure shown.

What was measured:
[1] = Oral bioavailability in rat at 1 mg/kg; format: ADME, organism-based; conditions: in vivo
[2] = Solubility of the compound in FaSSIF solution at 100 uM after overnight incubation by UPLC/DAD analysis; format: physicochemical
[3] = target: T1, Tyrosine-protein kinase JAK1 (Homo sapiens, UniProt P23458)
T1 sequence (P23458 whole entry): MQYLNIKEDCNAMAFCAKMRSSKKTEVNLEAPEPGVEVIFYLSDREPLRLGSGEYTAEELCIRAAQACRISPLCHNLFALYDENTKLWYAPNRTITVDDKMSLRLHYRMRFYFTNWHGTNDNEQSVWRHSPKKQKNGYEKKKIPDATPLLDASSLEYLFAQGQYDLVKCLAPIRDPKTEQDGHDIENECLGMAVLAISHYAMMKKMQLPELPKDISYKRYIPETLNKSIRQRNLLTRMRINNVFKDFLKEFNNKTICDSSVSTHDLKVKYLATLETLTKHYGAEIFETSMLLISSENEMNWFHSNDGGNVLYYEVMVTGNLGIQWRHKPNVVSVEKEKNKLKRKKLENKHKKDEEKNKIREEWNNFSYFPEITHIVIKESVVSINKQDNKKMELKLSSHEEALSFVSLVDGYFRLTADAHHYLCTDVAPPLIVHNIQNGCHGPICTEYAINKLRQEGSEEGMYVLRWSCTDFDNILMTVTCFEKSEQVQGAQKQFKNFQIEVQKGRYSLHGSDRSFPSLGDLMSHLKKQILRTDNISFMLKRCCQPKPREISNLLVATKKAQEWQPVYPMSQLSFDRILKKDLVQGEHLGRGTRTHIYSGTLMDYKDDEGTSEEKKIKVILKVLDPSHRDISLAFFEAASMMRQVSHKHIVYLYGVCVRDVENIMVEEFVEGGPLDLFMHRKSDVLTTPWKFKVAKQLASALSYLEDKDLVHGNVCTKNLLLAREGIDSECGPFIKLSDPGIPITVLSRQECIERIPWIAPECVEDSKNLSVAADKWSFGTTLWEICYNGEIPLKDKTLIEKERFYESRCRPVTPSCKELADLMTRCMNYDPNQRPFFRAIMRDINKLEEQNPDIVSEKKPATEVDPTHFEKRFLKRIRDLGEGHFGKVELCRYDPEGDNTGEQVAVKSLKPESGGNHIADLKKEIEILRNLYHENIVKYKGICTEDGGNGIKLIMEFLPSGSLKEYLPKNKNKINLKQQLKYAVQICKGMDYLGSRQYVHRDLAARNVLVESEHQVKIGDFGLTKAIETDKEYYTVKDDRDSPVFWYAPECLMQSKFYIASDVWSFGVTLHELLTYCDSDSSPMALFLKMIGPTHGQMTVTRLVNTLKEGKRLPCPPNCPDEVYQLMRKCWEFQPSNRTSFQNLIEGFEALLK

[4] = Intrinsic clearance in rat hepatocytes after 120 mins by LC-MS/MS analysis; format: ADME, cell-based, Hepatocyte; conditions: read-out: CLH
[5] = target: T2, Tyrosine-protein kinase JAK2 (Homo sapiens, UniProt O60674)
T2 sequence (O60674 whole entry): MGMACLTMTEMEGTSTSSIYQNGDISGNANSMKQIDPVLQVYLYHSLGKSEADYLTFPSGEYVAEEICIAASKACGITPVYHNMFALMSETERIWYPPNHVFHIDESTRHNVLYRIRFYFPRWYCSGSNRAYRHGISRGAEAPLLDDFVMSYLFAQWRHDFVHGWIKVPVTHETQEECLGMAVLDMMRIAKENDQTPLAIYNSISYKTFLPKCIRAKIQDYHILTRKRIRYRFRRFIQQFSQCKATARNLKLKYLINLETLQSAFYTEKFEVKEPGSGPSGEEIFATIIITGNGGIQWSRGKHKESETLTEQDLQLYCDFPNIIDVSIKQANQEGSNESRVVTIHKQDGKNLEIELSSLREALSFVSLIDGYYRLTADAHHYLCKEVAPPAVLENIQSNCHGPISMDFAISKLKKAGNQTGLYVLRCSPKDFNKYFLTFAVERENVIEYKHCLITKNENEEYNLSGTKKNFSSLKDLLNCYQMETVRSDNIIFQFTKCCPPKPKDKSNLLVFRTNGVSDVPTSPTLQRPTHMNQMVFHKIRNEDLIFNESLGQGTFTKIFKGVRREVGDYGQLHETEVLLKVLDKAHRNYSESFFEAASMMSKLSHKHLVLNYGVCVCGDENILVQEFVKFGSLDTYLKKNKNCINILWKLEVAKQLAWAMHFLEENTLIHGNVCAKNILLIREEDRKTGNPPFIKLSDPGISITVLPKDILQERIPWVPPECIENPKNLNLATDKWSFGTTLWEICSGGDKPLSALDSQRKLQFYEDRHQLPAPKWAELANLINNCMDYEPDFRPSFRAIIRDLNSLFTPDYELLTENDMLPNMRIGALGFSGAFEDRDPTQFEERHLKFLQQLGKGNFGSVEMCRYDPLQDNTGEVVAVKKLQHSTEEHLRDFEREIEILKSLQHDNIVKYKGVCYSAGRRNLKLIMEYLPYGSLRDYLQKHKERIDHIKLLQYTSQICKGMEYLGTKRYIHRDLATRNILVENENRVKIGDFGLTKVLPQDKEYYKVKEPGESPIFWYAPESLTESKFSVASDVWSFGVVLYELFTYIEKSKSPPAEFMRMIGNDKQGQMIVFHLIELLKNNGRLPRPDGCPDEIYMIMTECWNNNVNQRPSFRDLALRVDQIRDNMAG

[6] = target: T1, Tyrosine-protein kinase JAK1; remark: listed apart in the source
[7] = Lipophilicity, log D of the compound at 100 uM at pH 7 by HPLC/DAD analysis; format: physicochemical; conditions: buffer
[8] = target: T2, Tyrosine-protein kinase JAK2; remark: listed apart in the source
[9] = target: T3, Tyrosine-protein kinase JAK3 (Homo sapiens, UniProt P52333)
T3 sequence (P52333 whole entry): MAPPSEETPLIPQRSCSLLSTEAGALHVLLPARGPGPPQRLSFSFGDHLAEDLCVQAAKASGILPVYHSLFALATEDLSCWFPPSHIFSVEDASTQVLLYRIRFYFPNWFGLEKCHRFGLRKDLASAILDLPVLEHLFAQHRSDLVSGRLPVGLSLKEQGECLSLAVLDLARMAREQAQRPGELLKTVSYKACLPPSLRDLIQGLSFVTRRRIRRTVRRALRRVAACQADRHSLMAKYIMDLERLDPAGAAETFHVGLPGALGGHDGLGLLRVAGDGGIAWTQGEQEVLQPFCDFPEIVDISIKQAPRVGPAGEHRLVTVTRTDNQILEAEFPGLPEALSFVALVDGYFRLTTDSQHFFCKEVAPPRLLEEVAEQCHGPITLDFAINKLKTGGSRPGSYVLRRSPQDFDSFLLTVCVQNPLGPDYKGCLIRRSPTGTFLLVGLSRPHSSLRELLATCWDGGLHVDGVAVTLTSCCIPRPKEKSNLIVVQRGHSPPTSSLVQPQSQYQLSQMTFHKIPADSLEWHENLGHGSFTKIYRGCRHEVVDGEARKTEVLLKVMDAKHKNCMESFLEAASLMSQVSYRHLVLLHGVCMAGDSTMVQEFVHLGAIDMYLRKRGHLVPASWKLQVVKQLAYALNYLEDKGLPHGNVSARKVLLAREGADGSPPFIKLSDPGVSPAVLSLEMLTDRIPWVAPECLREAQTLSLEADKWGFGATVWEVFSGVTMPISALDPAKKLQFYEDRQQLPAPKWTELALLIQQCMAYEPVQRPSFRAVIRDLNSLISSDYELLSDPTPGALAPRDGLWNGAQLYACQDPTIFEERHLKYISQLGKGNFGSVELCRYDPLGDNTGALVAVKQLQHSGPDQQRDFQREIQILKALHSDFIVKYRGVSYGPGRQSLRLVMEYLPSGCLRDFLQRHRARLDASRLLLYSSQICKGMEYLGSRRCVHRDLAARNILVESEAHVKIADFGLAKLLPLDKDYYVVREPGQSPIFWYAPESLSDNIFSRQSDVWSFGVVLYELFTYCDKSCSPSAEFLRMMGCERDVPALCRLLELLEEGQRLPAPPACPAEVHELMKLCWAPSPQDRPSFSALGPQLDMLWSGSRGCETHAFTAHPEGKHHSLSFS

[10] = target: Non-receptor tyrosine-protein kinase TYK2 (Homo sapiens, UniProt P29597)
Sequence of Non-receptor tyrosine-protein kinase TYK2 (P29597 whole entry): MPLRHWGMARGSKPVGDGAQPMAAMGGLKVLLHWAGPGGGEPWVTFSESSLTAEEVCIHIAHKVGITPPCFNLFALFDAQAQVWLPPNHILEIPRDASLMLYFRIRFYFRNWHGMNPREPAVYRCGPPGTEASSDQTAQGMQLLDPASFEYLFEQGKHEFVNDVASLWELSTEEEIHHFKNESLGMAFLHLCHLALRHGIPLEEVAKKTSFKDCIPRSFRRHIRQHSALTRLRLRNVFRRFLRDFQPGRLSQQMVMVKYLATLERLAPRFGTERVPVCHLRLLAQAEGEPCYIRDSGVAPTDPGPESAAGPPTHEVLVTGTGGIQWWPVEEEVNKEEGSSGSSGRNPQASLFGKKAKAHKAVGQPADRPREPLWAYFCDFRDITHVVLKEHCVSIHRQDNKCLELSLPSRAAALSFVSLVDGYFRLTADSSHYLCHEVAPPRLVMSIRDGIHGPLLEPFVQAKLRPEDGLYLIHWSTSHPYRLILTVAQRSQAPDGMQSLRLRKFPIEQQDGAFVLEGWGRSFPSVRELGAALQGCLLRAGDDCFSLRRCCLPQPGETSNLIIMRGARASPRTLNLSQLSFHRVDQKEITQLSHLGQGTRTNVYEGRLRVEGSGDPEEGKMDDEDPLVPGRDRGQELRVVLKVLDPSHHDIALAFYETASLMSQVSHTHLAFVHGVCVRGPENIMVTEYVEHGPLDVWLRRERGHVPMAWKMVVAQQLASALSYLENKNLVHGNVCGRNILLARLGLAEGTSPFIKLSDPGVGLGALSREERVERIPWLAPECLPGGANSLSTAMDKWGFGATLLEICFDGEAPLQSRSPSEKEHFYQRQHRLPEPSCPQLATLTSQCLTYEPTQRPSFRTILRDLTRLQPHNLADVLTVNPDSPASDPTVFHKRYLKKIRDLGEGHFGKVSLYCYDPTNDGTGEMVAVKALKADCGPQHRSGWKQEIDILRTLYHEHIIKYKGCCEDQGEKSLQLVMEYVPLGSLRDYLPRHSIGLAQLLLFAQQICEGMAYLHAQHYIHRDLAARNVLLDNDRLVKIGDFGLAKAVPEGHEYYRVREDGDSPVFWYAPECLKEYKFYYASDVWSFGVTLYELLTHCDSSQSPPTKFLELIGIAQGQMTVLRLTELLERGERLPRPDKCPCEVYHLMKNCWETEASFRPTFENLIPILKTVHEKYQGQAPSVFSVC

[11] = Intrinsic clearance in human hepatocytes after 120 mins by LC-MS/MS analysis; format: ADME, cell-based, Hepatocyte; conditions: read-out: CLH
[12] = organism: Homo sapiens; assay: Selectivity ratio of IC50 for GST-tagged recombinant human JAK2 catalytic domain to IC50 for GST-tagged recombinant human JAK1 catalytic domain
[13] = target: Voltage-gated inwardly rectifying potassium channel KCNH2 (Homo sapiens, UniProt Q12809)
Sequence of Voltage-gated inwardly rectifying potassium channel KCNH2 (Q12809 whole entry): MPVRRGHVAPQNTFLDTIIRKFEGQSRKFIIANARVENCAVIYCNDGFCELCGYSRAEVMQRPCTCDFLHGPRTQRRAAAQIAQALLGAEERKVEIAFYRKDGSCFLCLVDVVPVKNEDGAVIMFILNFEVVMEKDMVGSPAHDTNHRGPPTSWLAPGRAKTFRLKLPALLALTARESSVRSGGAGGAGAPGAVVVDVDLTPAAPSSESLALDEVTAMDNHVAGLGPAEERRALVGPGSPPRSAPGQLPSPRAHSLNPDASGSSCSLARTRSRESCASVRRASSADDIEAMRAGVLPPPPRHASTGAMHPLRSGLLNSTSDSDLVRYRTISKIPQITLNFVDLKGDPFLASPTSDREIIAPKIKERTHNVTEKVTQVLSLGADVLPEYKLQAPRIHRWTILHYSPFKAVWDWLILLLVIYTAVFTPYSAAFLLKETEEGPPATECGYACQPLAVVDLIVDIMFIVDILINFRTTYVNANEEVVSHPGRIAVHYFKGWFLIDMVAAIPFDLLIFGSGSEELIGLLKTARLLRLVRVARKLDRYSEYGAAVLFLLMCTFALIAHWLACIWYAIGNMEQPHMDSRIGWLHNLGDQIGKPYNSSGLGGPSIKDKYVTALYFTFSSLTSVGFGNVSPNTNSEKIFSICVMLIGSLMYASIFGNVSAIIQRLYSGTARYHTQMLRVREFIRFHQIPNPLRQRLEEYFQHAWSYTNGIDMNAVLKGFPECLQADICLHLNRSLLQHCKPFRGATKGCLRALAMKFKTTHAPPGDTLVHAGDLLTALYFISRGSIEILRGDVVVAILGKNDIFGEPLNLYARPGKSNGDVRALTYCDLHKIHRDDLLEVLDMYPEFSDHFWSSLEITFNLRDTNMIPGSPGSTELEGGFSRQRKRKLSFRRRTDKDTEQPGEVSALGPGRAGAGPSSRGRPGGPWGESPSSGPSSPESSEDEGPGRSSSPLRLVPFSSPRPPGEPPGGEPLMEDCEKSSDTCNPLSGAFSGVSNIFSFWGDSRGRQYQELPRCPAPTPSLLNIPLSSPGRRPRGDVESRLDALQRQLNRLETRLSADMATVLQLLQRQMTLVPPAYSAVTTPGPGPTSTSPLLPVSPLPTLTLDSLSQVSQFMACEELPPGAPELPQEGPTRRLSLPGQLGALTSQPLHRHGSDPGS

[14] = Plasma clearance in rat at 0.5 mg/kg, iv or 1 mg/kg, po; format: ADME, organism-based
[15] = tested on: Rattus norvegicus; assay: Unbound clearance in rat at 0.5 mg/kg, iv or 1 mg/kg, po; format: ADME, organism-based; conditions: in vivo

Row | SMILES | bioavailability [1] [%] | solubility at 100 µM [2] [µM] | pIC50 [3] | CLint scaled [4] [mL/min/kg] | pIC50 [5] | pIC50 [6] | logD at 100 µM [7] | pIC50 [8] | pIC50 [9] | pIC50 [10] | CLint scaled [11] [mL/min/kg] | clearance [14] [mL/min/kg] | CL free [15] [mL/min/kg] | Ratio IC50 [12] | pIC50 [13]
1 | COc1ccnc2c(F)cc(Nc3nn([C@H]4COCC[C@@H]4C#N)cc3C(N)=O)cc12 |  |  | 7.62 | 15 | 5.67 | 9.72 | 1.4 | 8.00 | < 5.83 | 8.10 | 15 |  |  | 53 | 
2 | Cn1cc(-c2ccc(Nc3nn([C@H]4COCC[C@@H]4C#N)cc3C(N)=O)cc2)cn1 | 18 | 42 (≈ 16.4 µg/mL) | 8.22 | 55 | 7.41 | 10.70 | 1.48 | 9.30 | 7.04 | 9.70 | < 20 |  |  | 23 | < 4.22
3 | COc1cc(Nc2nn([C@H]3COCC[C@@H]3C#N)cc2C(N)=O)cc(F)n1 [ATINVICITINIB] | 49 |  | 7.41 | 14 |  | 9.40 | 1.89 |  |  | 7.89 | 2 |  |  |  | 
4 | CN([C@H]1CC[C@H](n2cc(C(N)=O)c(Nc3ccc(Cl)cc3)n2)[C@@H](C#N)C1)C1(C)COC1 |  |  |  | 80 |  |  |  |  |  |  | 32 |  |  |  | 4.34
5 | CN(C)c1cc(Nc2nn([C@H]3COCC[C@@H]3C#N)cc2C(N)=O)cc(F)n1 | 4 |  | 7.55 | 9 | 6.28 | 9.74 | 2.07 | 8.47 | 6.15 | 7.89 | 4 |  |  | 19 | 
6 | N#C[C@H]1CCOC[C@@H]1n1cc(C(N)=O)c(Nc2cc(F)c3nccc(Cl)c3c2)n1 | 19 |  | 7.85 | 52 | 6.22 | 9.62 | 1.81 | 8.15 | 5.99 | 7.92 | 25 |  |  | 29 | 
7 | N#C[C@H]1CCOC[C@@H]1n1cc(C(N)=O)c(Nc2ccc(OC(F)F)cc2)n1 | 42 |  | 8.30 | 59 | 7.27 | 10.00 | 2.27 | 9.10 | 6.71 | 9.15 | 28 |  |  | 11 | 4.60
8 | N#Cc1ccc(Nc2nn([C@H]3COCC[C@@H]3C#N)cc2C(N)=O)cc1C1CC1 |  |  | 7.14 |  | 6.13 | 8.85 | 2.34 | 7.80 | < 5.83 | 7.40 |  |  |  | 11 | 
9 | N#C[C@H]1CCOC[C@@H]1n1cc(C(N)=O)c(Nc2ccc(C3CC3)cc2)n1 |  |  | 7.43 | 262 | 6.70 | 9.30 | 2.58 | 8.72 | 6.55 | 8.41 | 41 |  |  | 4 | 4.46
10 | N#C[C@H]1CCOC[C@@H]1n1cc(C(N)=O)c(Nc2ccc([C@H](O)C(F)(F)F)cc2)n1 | 9 |  |  | < 40 |  |  | 1.93 |  | 7.00 | 9.40 | < 20 |  |  |  | < 4.22
11 | COc1cc(Nc2nn([C@H]3COCC[C@@H]3C#N)cc2C(N)=O)ccc1C#N | 2 |  | 7.72 | < 40 | 6.37 |  | 1.87 | 8.49 | 6.41 | 8.05 | 24 |  |  | 46 | 
12 | C[C@@H]1NS(=O)(=O)c2ccc(Nc3nn([C@H]4COCC[C@@H]4C#N)cc3C(N)=O)cc21 |  |  | 7.80 | 62 | 6.65 | 10.40 | 3.15 | 8.70 | 6.50 | 8.77 | 62 |  |  | 50 | 

Now from value to compound, other results behind:

Row | bioavailability [1] [%] | solubility at 100 µM [2] [µM] | pIC50 [3] | CLint scaled [4] [mL/min/kg] | pIC50 [5] | pIC50 [6] | logD at 100 µM [7] | pIC50 [8] | pIC50 [9] | pIC50 [10] | CLint scaled [11] [mL/min/kg] | clearance [14] [mL/min/kg] | CL free [15] [mL/min/kg] | SMILES | Ratio IC50 [12] | pIC50 [13]
13 | 3 | 96 (≈ 36.3 µg/mL) | 7.64 | 4.8 | 6.60 | 10.22 | 1 | 9.15 | 6.94 | 9.30 | 2.5 |  |  | N#C[C@H]1CCOC[C@@H]1n1cc(C(N)=O)c(Nc2ccc(-n3ccnn3)cc2)n1 |  | 
14 | 79 | 18 (≈ 5.6 µg/mL) | 7.48 | 70 |  | 9.40 | 2.08 |  | 6.44 | 8.54 | 6 | 20 | 110 | N#C[C@H]1CCOC[C@@H]1n1cc(C(N)=O)c(Nc2ccccc2)n1 |  | < 4.22
15 | 23 |  | 7.59 |  | 6.58 | 9.40 | 2.18 | 8.57 | 6.25 | 8.40 |  |  |  | N#Cc1ccc(Nc2nn([C@H]3COCC[C@@H]3C#N)cc2C(N)=O)cc1Cl | 7 | 
16 | 10 |  |  |  |  |  |  |  |  |  |  |  |  | N#C[C@H]1C[C@@H](O)CC[C@@H]1n1cc(C(N)=O)c(Nc2ccc(Cl)cc2)n1 |  | 4.59
17 |  |  |  | 160 |  |  | 2.66 |  |  |  | 25 | 484 | 12100 | N#C[C@H]1CCCC[C@@H]1n1cc(C(N)=O)c(Nc2ccccc2)n1 |  | < 4.22
18 | 71 | 39 (≈ 13.5 µg/mL) |  | 9 |  |  | 2.57 |  | 6.59 | 8.70 | 85 |  |  | N#C[C@H]1CCOC[C@@H]1n1cc(C(N)=O)c(Nc2ccc(Cl)cc2)n1 |  | 4.40
19 |  |  | 7.11 |  | 5.92 | 9.05 | 1.99 | 8.30 | 6.18 | 7.96 |  |  |  | N#Cc1ccc(Nc2nn([C@H]3COCC[C@@H]3C#N)cc2C(N)=O)cc1C#N | 6 | 
20 |  |  | 7.62 |  | 5.79 | 9.80 | 1.02 | 8.15 | 6.11 | 7.85 |  |  |  | Cc1ncnc2ccc(Nc3nn([C@H]4COCC[C@@H]4C#N)cc3C(N)=O)cc12 | 43 | 
21 | 19 | 159 (≈ 52.5 µg/mL) |  | 5 |  |  | 1.18 |  | 6.29 | 8.52 | 1.5 |  |  | N#C[C@H]1CCOC[C@@H]1n1cc(C(N)=O)c(Nc2ccnc(F)c2)n1 |  | < 4.22
22 | 40 | 42 (≈ 13.8 µg/mL) | 7.51 | < 40 | 6.48 | 9.52 | 2.18 | 8.70 | 6.52 | 8.74 | < 20 |  |  | N#C[C@H]1CCOC[C@@H]1n1cc(C(N)=O)c(Nc2ccc(F)cc2)n1 | 7 | 4.40
